From patent US12110311B2, “Cyclic deoxyribonucleotide compounds” (NUCORION PHARMACEUTICALS, INC., priority 2019, dated 2024)
Where two headings read alike, the source gives them in different places.

Key:
[1] = in vivo; cited from earlier work
[2] = Tissue distribution following oral administration in rats (prodrug and metabolite levels in liver and blood); format: in vivo; details: rat, 1 hour after oral administration, 5 mg/kg
Description: The liver specificity of the disclosed compounds is compared relative to a corresponding active compound in the liver and other organs that could be targets of toxicity.
Reference compounds and the cyclic deoxyribonucleotide compounds are administered at 5-50 mg/kg to fasted rats by oral gavage. Plasma concentrations of the metabolites, and parent compounds in circulation and in the hepatic portal vein are determined by HPLC-UV, and the liver, small intestine, and other organ concentrations are measured by LC-MS using the standard chromatography method.

[3] = prodrug level in blood, read-out: Drug blood
[4] = prodrug level in liver, read-out: Drug liver

SMILES	biological half-life [1]	concentration at 1 h [2, 3]	concentration at 1 h [2, 4]
O=c1[nH]cc(F)c(=O)[nH]1 [5-Fluorouracil]	~16 minutes	–	–
CC(C)OC(=O)c1ccccc1COP1(=O)OC[C@H]2O[C@@H](n3cc(F)c(=O)[nH]c3=O)C[C@@H]2O1 (stereo partly drawn) [Compound 124, Isopropyl 2-((((4aR,6R,7aS)-6-(5-fluoro-2,4-dioxo-3,4-dihydropyrimidin-1(2H)-yl)-2-oxidotetrahydro-4H-furo[3,2-d][1,3,2]dioxaphosphinin-2-yl)oxy)methyl)benzoate]	–	11 ng/mL	668 ng/g
CCCOC(=O)c1ccccc1COP1(=O)OC[C@H]2O[C@@H](n3cc(F)c(=O)[nH]c3=O)C[C@@H]2O1 (stereo partly drawn) [Compound 126, Propyl 2-((((4aR,6R,7aS)-6-(5-fluoro-2,4-dioxo-3,4-dihydropyrimidin-1(2H)-yl)-2-oxidotetrahydro-4H-furo[3,2-d][1,3,2]dioxaphosphinin-2-yl)oxy)methyl)benzoate]	–	2.7 ng/mL	9.3 ng/g
